System: bacterial colonies in pig tissue
Assay: Microbiological control of pig tissue treated with disinfectants (CFU/plate)
Format: cell-based
Source text: FIG. 3. It is shown the microbiological control of tissue for obtaining the collagen product, by means of the methodology described in the present application. It corresponds to CFU/plate in pig tissue treated with povidone-iodine or peracetic acid. […] Abbreviations: PY—povidone-iodine, PA—Peracetic Acid, CFU—colony forming units, CC—work bell control.
FIG. 4. It is shown results of microbiological control. The photographs of the culture plates show the initial growth of bacterial colonies at the beginning (time 0), and the decrease of CFU at 5 minutes, 30 minutes, 1 hour and 3 hours of exposure to the disinfectant; in the top panel povidone-iodine (PY) and in the lower panel peracetic acid (PA).
• i) Sterilization and freezing of the tissue: Pig's head cheeks skin from 175 to 190 days of age were used. Which was immersed for 3.5 hours in a commercial solution of povidone-iodine 10% (Brand: Centrovet) and brushed on both sides every 30 minutes, in a sterile environment, and rinsed with ultra-pure quality water. […] The disinfected tissue is bagged and sealed to freeze at −80° C. (±2.0° C.) in ultra freezer (Brand: Thermoline).

`CC(=O)OO` [PA, peracetic acid] was tested. Which “formation of bacterial colonies on culture plates” value (3 hours of exposure to the disinfectant) did it give?
The value was “the presence of a colony still persists”.

What about the “UCF/plate in pig tissue treated with PY or PA” value (from here on “UCF/plate in pig tissue treated”) (exposition time 0 min) of the same molecule?
The value was 132 UCF/plate.

And the “UCF/plate in pig tissue treated” value (exposition time 5 min)?
Its value is 2 UCF/plate.

What about the “UCF/plate in pig tissue treated” value (exposition time 30 min) of the same molecule?
Its value is 3 UCF/plate.

What about the “UCF/plate in pig tissue treated” value (exposition time 1 hour) of the same molecule?
Its value is 7 UCF/plate.

And the “UCF/plate in pig tissue treated” value (exposition time 3 hours)?
Its value is 1 UCF/plate.
